{"source": "patent US20040022827A1", "about": "“Remedy for hepatopathy” (CHUGAI SEIYAKU KABUSIKI KAISHA, priority 1997, published 2004)", "key": {"[1]": {"tested_on": "Rat Model of CCl4-Induced Chronic Hepatopathy", "test": "Rat model of CCl4-induced chronic hepatopathy", "format": "in vivo", "details": "feed with 3 wt % L-valine for 14 weeks", "procedure": "Crj: Donryu male rats aged 8-9 weeks were used. During the experiment, the rats were given a dedicated feed MF (product of Oriental Yeast) and water ad libitum. Carbon tetrachloride (product of Wako Pure Chemical Industries) was dissolved in olive oil (product of Wako Pure Chemical Industries) to prepare a 50% (v/v) solution, which was administered subcutaneously to the rats for 14 weeks on a twice-a-week basis (to give 28 shots), each time at a dose of 2 mL/kg, thereby preparing models of chronic hepatopathy. During the 14-week experiment, the rats were given an experimental feed which was a dedicated feed MF; this was given as such to the control group and as a mixture with 3 wt % L-valine to the L-val group. A non-treated (NT) group was also set. After the end of the 14-week experiment, the rats were anesthetized with ether and blood was taken from the abdominal aorta; thereafter, autopsy was done to collect liver samples."}, "[2]": {"tested_on": "Rat Model of CC14-Induced Acute Hepatopathy", "test": "Rat model of carbon tetrachloride-induced acute hepatopathy", "format": "in vivo", "details": "experimental fluids administered for two days; L-valine 16.88 g/L in lactated Ringer's, 100 mL/kg/day iv; mean ± SD", "procedure": "(§1) Crj: Donryu male rats aged 8-9 weeks and weighing 250 g or so were used. During the experiment, the rats were given a dedicated feed MF (product of Oriental Yeast) and water ad libitum. D-Galactosamine HCl (product of Sigma) was dissolved in physiological saline, adjusted to pH 7.0 with 1 N NaOH and used as a solution containing 100 mg of D-galactosamine (hereinafter referred to simply as “galactosamine”) per milliliter. Carbon tetrachloride (product of Wako Pure Chemical Industries) was used as a 50% (v/v) solution in olive oil (product of Wako Pure Chemical Industries). After 12-h fasting, the rats were administered intraperitoneally with galactosamine in a volume of 10 mL/kg or subcutaneously with the carbon tetrachloride solution at a volume of 4 mL/kg to induce hepatopathy. Immediately after the administration, the rats were anesthetized with ether and a catheter was inserted into the right cervical vein of each animal and retained in the central vein. The catheter in the central vein was passed under the skin to connect the blade bones, fitted with a harness, passed through a protective coil and connected to a swivel (Bio-Cannula of Biomedica). The rats were transferred into a metabolic cage and subjected to the experiment under a non-anesthetized and unconstrained condition. The experimental fluids were administered constantly with the pumping speed set at 100 mL/kg/day. The experimental fluids were administered for 1-4 days. The treated groups were two, one being a control group administered with a lactated Ringer's injection [[…] (registered trademark) of Otuka Seiyaku] and the other being an L-Val group administered with valine (L-valine added to lactated Ringer's injection to a concentration of 16.88 g/L). A non-treated (NT) group was also set. After the end of administration of the experimental fluids, the rats were anesthetized with ether and blood was taken from the abdominal aorta; thereafter, autopsy was done to collect liver samples."}, "[3]": {"tested_on": "Patient with chronic hepatitis C", "test": "Peroral L-valine in patient with chronic hepatitis C", "format": "in vivo, human", "details": "4-month period after start of oral L-valine 1 g three times a day; mean±SD of four monthly tests", "source_text": "Patient ([…]) with chronic hepatitis C was given oral administration of L-valine on a three-times-a-day basis, with one gram at each time. The average GOT and GPT levels of the patient for a 4-month period before the administration of L-valine were 89.0±21.9 IU/L and 91.5±23.1 IU/L, respectively, in terms of mean±SD obtained by four tests on a monthly basis. The average GOT and GPT levels for a 4-month-period after the start of valine administration were 68.3±20.4 IU/L and 73.0±24.3 IU/L, respectively, in terms of mean±SD obtained by four tests on a monthly basis; thus, significant (p<0.05 in t-test) decreases were observed. An ameliorating effect was also observed in platelet counts; the average platelet count for a 6-month period before the administration of L-valine was 15.7±1.7 (×10^4) in terms of mean±SD obtained by four tests on a monthly or bimonthly basis, whereas the average platelet count for a 4-month period after the start of valine administration was 20.4±0.9 (×104) in terms of mean±SD obtained by four tests on a monthly basis; thus, a significant (p<0.01 in t-test) increase was observed. It was therefore clear that L-valine is also effective in patients with chronic hepatitis."}, "[4]": {"tested_on": "Rat Model of Glactosamine-Induced Acute Hepatopathy", "test": "Rat model of galactosamine-induced acute hepatopathy", "format": "in vivo", "details": "experimental fluids administered for one day; L-valine 16.88 g/L in lactated Ringer's, 100 mL/kg/day iv; mean ± SD", "procedure": "as §1"}, "[5]": {"tested_on": "Rat Model of Hepatic Insufficiency due to 90% Hepatectomy", "test": "Rat model of hepatic insufficiency due to 90% hepatectomy", "format": "in vivo", "source_text": "Crj: Donryu male rats aged 8-9 weeks and weighing 250 g or so were used. During the experiment, the rats were given a dedicated feed MF (product of Oriental Yeast) and water ad libitum. After 12-h fasting, the rats were anesthetized with ether and a catheter was inserted into the right cervical vein of each animal and retained in the central vein. Subsequently, the rats were underwent 90% hepatectomy according to the method of Gaub et al. (J. Gaub et al., Hepatology, 4, 902-904, 1984). The catheter in the central vein was passed under the skin to connect the blade bones, fitted with a harness, passed through a protective coil and connected to a swivel (Bio-Cannula of Biomedica). The rats were transferred into a metabolic cage and subjected to the experiment under a non-anesthetized and unconstrained condition. The experimental fluids were administered constantly with the pumping speed set at 100 mL/kg/day. Immediately after the hepatectomy, 3 mL of a 20% glucose solution was administered to the rats subcutaneously; for 3 days after the hepatectomy, the rats were allowed to drink a 10% glucose solution and thereafter tap water. The experimental fluids were administered for 4 or 6 days. The treated groups were two, on being a control group administered with a lactated Ringer's injection [Lactec (registered trademark) of Otuka Seiyaku] and the other being an L-val group administered with valine (L-valine added to lactated Ringer's injection to a concentration of 16.88 g/L). A non-treated (NT) group was also set. After the end of the administration of the experimental fluids, the rats were anesthetized with ether and blood was taken from the abdominal aorta; thereafter, autopsy was done to collect liver samples."}, "[6]": {"details": "experimental fluids administered for four days, mean ± SD"}, "[7]": {"details": "experimental fluids administered for six days, 20 animals"}}, "data": [{"smiles": "CC(C)[C@H](N)C(=O)O", "note": "[L-Val, L-valine]", "values": [{"measurement": "No. of deaths", "setting": "[1]; 10 animals", "value": 0}, {"measurement": "No. of viable cases", "setting": "[1]; 10 animals", "value": 10}, {"measurement": "Retention of ascites (No. of cases)", "setting": "[1]; 10 animals", "value": 1}, {"measurement": "Retention of pleural effusion (No. of cases)", "setting": "[1]; 10 animals", "value": 0}, {"measurement": "Fischer ratio BCAA/AAA", "setting": "[1]; mean ± SD", "value": "3.17 ± 0.96"}, {"measurement": "Fischer ratio BCAA/AAA", "setting": "[2]", "value": "4.32 ± 1.74"}, {"measurement": "GOT", "setting": "[2]", "value": "3241.9 ± 2567.2", "unit": "IU/1"}, {"measurement": "GPT", "setting": "[2]", "value": "1951.2 ± 1730.9", "unit": "IU/l"}, {"measurement": "LDH", "setting": "[2]", "value": "3040.1 ± 4163.3", "unit": "IU/l"}, {"measurement": "TP", "setting": "[2]", "value": "5.1 ± 0.4", "unit": "g/dL"}, {"measurement": "average GOT level", "setting": "[3]", "value": "68.3±20.4", "unit": "IU/L"}, {"measurement": "average GPT level", "setting": "[3]", "value": "73.0±24.3", "unit": "IU/L"}, {"measurement": "average platelet count", "setting": "[3]", "value": "20.4±0.9 ×104"}, {"measurement": "Alb", "setting": "[4]", "value": "2.5 ± 0.1", "unit": "g/dL"}, {"measurement": "Fischer ratio BCAA/AAA", "setting": "[4]", "value": "6.42 ± 0.40"}, {"measurement": "GOT", "setting": "[4]", "value": "760.2 ± 215.4", "unit": "IU/1"}, {"measurement": "GPT", "setting": "[4]", "value": "415.7 ± 180.8", "unit": "IU/1"}, {"measurement": "LDH", "setting": "[4]", "value": "973.7 ± 362.0", "unit": "IU/1"}, {"measurement": "TP", "setting": "[4]", "value": "4.9 ± 0.3", "unit": "g/dL"}, {"measurement": "Alb", "setting": "[5]; [6]", "value": "1.8 ± 0.2", "unit": "g/dL"}, {"measurement": "Fischer ratio BCAA/AAA", "setting": "[5]; [6]", "value": "3.33 ± 1.11"}, {"measurement": "GOT", "setting": "[5]; [6]", "value": "402.3 ± 302.4", "unit": "IU/l"}, {"measurement": "GPT", "setting": "[5]; [6]", "value": "134.9 ± 76.3", "unit": "IU/l"}, {"measurement": "TP", "setting": "[5]; [6]", "value": "3.6 ± 0.5", "unit": "g/dL"}, {"measurement": "No. of deaths", "setting": "[5]; [7]", "value": 1}, {"measurement": "No. of viable cases", "setting": "[5]; [7]", "value": 19}, {"measurement": "Viability", "setting": "[5]; experimental fluids administered for six days, 20 animals, P < 0.01 vs control", "value": 95, "unit": "%"}]}]}
